The values below come from publication PMC12845078 (Pharmaceuticals, 2025).

The IC50 is the concentration that inhibits the measured activity by half. A low value points to higher potency.

Data set [1] concerns the target T1, CYP enzymes involved in melatonin 6-hydroxylation (Canis lupus familiaris, UniProt P56592).
T1 sequence (P56592 2-512): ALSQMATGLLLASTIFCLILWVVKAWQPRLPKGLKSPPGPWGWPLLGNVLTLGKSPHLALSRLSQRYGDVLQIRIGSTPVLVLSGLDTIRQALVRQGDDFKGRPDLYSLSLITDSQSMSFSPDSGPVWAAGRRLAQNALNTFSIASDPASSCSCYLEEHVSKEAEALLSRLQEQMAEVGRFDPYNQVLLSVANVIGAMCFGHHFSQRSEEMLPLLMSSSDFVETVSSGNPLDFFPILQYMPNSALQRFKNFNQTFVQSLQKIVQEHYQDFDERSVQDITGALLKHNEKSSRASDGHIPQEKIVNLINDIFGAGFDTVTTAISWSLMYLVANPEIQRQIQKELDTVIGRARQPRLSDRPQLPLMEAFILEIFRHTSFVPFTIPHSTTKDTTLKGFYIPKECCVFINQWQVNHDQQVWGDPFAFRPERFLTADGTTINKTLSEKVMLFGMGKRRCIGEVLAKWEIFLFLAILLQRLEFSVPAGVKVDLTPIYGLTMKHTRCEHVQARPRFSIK
In words: Competitive inhibition of CBD on MT 6-hydroxylation, beagle liver microsomes. It counts as in vitro ADME. To be noted: dog, probe melatonin (MT) 1 μM, 6-hydroxylation to 6-HMT. Here is the method: (§1) The final incubation system contained 100 mM PBS, 5 mM MgCl2, 0.5 mg/mL liver microsomal protein, and 1 mM NADPH. […] The final concentration of MT was 1 μM.
(Liver microsomes are a subcellular fraction often used to study metabolism.)

The target in data set [2] is T2, CYP enzymes involved in melatonin 6-hydroxylation, human liver microsomes (Homo sapiens, UniProt P05177).
T2 construct: tissue XenoTech; host or cells: human liver microsomes
T2 sequence (P05177 1-516): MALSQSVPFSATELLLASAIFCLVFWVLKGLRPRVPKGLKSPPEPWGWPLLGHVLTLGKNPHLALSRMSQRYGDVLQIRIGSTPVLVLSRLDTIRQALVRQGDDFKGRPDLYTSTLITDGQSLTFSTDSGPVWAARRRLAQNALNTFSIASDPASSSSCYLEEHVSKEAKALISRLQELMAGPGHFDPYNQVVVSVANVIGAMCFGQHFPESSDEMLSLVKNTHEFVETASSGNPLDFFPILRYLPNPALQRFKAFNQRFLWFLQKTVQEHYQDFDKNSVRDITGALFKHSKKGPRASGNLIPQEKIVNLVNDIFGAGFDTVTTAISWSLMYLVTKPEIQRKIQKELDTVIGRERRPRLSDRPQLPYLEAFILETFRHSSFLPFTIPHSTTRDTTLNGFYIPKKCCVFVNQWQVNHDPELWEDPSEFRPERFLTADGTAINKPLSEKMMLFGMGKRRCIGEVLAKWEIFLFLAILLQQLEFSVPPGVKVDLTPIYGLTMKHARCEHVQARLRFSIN
In words: Competitive inhibition of CBD on MT 6-hydroxylation, human liver microsomes. Format: in vitro ADME. As to the method: as §1

Data set [3] deals with CYP enzymes of MT 6-hydroxylation. The data set is described as follows: in vitro. To be noted: human, liver microsomes, probe melatonin (MT) 2 μM, 6-hydroxylation to 6-HMT, IC50 Ratio (IC50 shift), HLM, 30 min pre-incubation with/without NADPH.
Procedure: The reaction was initiated by adding pre-warmed NADPH (control groups lacked NADPH). The final incubation mixture contained 100 mM PBS, 5 mM MgCl2, liver microsomes (0.5 mg/mL), 1 mM NADPH, and 0.2% BSA. […] Concentrations in beagle dog microsomal incubations were 0, 0.125, 0.25, 0.5, 1, 2, 4, 8, 16, and 32 μM. […] All samples were prepared in triplicate. The concentration of 6-HMT was quantified using LC-MS/MS.
Competitive inhibition and time-dependent inhibition assays: The production of 6-HMT without inhibitors was set as 100%.

In the case of `C=C(C)[C@@H]1CCC(C)=C[C@H]1c1c(O)cc(CCCCC)cc1O` [CBD, Cannabidiol], the half-inhibitory concentration (IC50) at 30 min in data set [1] (IC50, beagle, as listed in Table 6 for static DDI model) worked out at 0.65 µM; in data set [1] (IC50, inhibition of MT 6-hydroxylation, DLM, MT 1 μM), 3.42 ± 1.3 µM. Besides, in data set [2], the IC50 stood at 16.5 ± 4.23 µM. Besides, in data set [3], the IC50 shift at 30 min turned out to be 2.55.
